Key:
Type in all cases: functional, cell-based
[1] = test system: LLC-PK1; test: Cytotoxicity against pig LLC-PK1 cells after 96 hrs by MTT assay; settings: Sus scrofa, LLC-PK1, 96 h
[2] = Cytotoxicity against human H441 cells after 96 hrs by MTT assay; settings: NCI-H441, 96 h
[3] = test system: P388; test: Cytotoxicity against mouse P388 cells after 96 hrs by MTT assay; settings: P388, 96 h
[4] = test system: SH-SY5Y; test: Cytotoxicity against human SH-SY5Y cells after 96 hrs by MTT assay

Row | SMILES | IC50 [1] [nM] | IC50 [2] [nM] | IC50 [3] [nM] | IC50 [4] [nM]
1 | C=C1C[C@](OC)([C@H](O)C(=O)N[C@H]2OCO[C@H]3[C@@H]2O[C@H](C[C@H](O)CO)C(C)(C)[C@@H]3OC)O[C@H](C)[C@@H]1C [MYCALAMIDE A] | 0.65 | 0.46 | 5.2 | 0.52
2 | C=C1C[C@](OC)([C@H](O)C(=O)N[C@H]2OCO[C@H]3[C@@H]2O[C@H](C[C@@H](CO)OC)C(C)(C)[C@@H]3OC)O[C@H](C)[C@@H]1C [MYCALAMIDE B] | 19.4 | 9.3 | 1.3 | 6.42
3 | C=C1C[C@](OC)([C@H](O)C(=O)N[C@H]2OCO[C@H]3[C@@H]2O[C@H](C[C@H](O)CO)C(C)(C)[C@@H]3O)O[C@H](C)[C@@H]1C [MYCALAMIDE D] |  |  | 65.5 | 

Source: ChEMBL document CHEMBL1142618, “Mycalamide D, a new cytotoxic amide from the New Zealand marine sponge Mycale species” (J Nat Prod, 2000)
